Assay results from patent US12589103B2, “Antimicrobial and antiviral effects of C2-C7 alkyl boronic acids” (CORNELL UNIVERSITY, priority 2019, dated 2026).
Entries after “also recorded” stand apart in the source; their conditions may differ.

Tests used:
[1] = system: enteric pathogens (E. coli, Salmonella, Listeria monocytogenes, Klebsiella); experiment: Bacterial growth panel, OD600 growth-curve AUC ratio (heat map); format: cell-based
[2] = system: Gram Positive aerobes and probiotic species (Lactobacillus, Bifidobacteria); experiment: Bacterial growth panel, impact on non-target species (selectivity); format: cell-based
Salmonella = experiment: Soft agar motility assay, Salmonella; format: cell-based; details: % motility of the control
Procedure: The ability of ABA C1-3 and BA to impact the motility of E. coli and Salmonella was evaluated using sloppy agar treated with and without BA and C1-C3 alkyl boronic acids. Motility is strongly linked to the virulence phenotype of these bacterial strains. E. coli was grown overnight at 37° C. in LB broth. Soft agar plates (1% tryptone, 0.5% NaCl, 0.25% agar) were prepared the day before the assay was carried out. Sterile NaCl (control), boric or boronic acid stock solution was added into the agar right before pouring the plates. The overnight cultures of E. coli were transferred (3 μl) on to the center of each plate, followed by incubation of the plates at 37° C. for 10 h. E. coli motility was quantified by measuring the diameter of the circular swarming area formed by the growing motile bacteria.

nF-κB = experiment: E. coli induced nF-κB activation in HEK-Blue KD-TLR5 cells (SEAP reporter); format: cell-based; details: m.o.i 20, SEAP at 24 h
Procedure: HEK-Blue KD-TLR5 cells were used to detect the promotor activation of nF-κB by E. coli infection with or without boric or boronic acid treatment. nF-κB is the prototypical transcription factor for pro-inflammatory cytokines in epithelium. Briefly, cells were seeded in 96-well plates at a density of 5×10^4 cells per well. E. coli was diluted into fresh cell medium containing either NaCl (Control), boric or boronic acid at an m.o.i of 200 as 10× inocula, followed by addition of this inoculum (10 μl) into each well containing 100 μl of medium for a final m.o.i of 20. At 3 h post infection, the cell medium was carefully removed from each well, and replaced with 100 μl of fresh medium containing gentamycin (200 μg mL^−1). At 24 h post infection, the spent medium was collected, and centrifuged at 12,000 r.p.m. for 5 min to remove any particulate matter. QUANTI-Blue Kit (InvivoGen, San Diego, CA, USA) was used to detect the reporter protein SEAP (secreted alkaline phosphatase) following the manufacturer's instructions.

AIEC 541-1 and LF82 = experiment: Adhesion and invasion of Caco-2 cells by AIEC; format: cell-based, E. coli; details: 30 mM, m.o.i 10, 3 h
Procedure: E. coli was cultured overnight in LB at 37° C. with shaking. Bacterial pellets were re-suspended in PBS before dilution in cell culture media±30 mM boronic acid or alkyl boronic acid to an m.o.i (multiplicity of infection) of 10. Caco-2 cells were infected with the diluted E. coli for 3 h at 37° C. before washing with PBS, then lysed with 1% Triton X-100. Serial dilutions of the lysates were made in PBS and plated on LB agar. The total number of colonies recovered was used to calculate the number of adherent bacteria. For invasion assays, cells were treated with gentamicin (100 μg mL−1) for one hour after initial infection and 3× wash with PBS to kill extracellular bacteria. Cells were then washed 3× after gentamicin treatment, lysed and plated as described above.

[3] = DSS induced colitis in mice; format: in vivo, C57BL mice; details: 40 mM in drinking water after DSS (3%)
Procedure: On the basis of favorable in vivo toxicity tests, the ability of BA and EBA to reduce the severity of inflammation in murine models of microbially driven IBD was tested. The effect of BA and EBA (40 mM) on intestinal inflammation was evaluated in mice with dextran sodium sulfate (“DSS”) induced colitis. The DSS model has a complex etiopathogenesis that involves host-immune and inflammatory responses and the enteric microbiome BA To test their protecting ability to the gastrointestinal tract, boric and ethylboronic acid were given to C57BL mice at 40 mM concentration respectively in drinking water after DSS (3%) treatment. Body weight and fecal samples were taken before and after 6-day treatment. At the 6th day, all mice were euthanized for gross necropsy and histopathology. Intestinal sections were collected and embedded for pathological and FISH analysis. Fecal samples were used for 16s and lipocalin analysis.

[4] = system: Feline Infectious Peritonitis Virus (FIPV) Black (TN-406); experiment: FIPV replication and syncytium formation, immunofluorescence; format: cell-based, Feline Coronavirus type I; details: 10, 20, 30, 40 mM; Feline Lung cells, 18 h post-infection
[5] = system: Klebsiella pneumonia (13Dk); experiment: Growth in M9 media; details: EBA 10-40 mM
[6] = system: probiotic Lactobacillus spp; experiment: Growth of probiotic Lactobacillus strains; details: three Lactobacillus strains

CCB(O)O [EBA, ethyl boronic acid]
antibacterial activity / potency against enteric pathogens (growth, AUC+test compound:AUC−test compound) ([1]; 40 mM (BA, EBA, PBA), 20 mM (BBA), 10 mM (PeBA), 5 mM (HBA, SBA), 1 mM (OBA), 0.5 mM (DBA), 2 mM (DoDBA), 20 mM (FMPBA), 24-48 hrs): higher potency against enteropathogens
selectivity for Gram Negative enteropathogens ([1]; growth panel): highest
selectivity against Probiotic spp ([2]; compared with BA): more selective than BA
selectivity versus Gram Positive aerobes ([2]; compared with BA): more selective than BA
selectivity: impact on Gram Positive aerobes and probiotic species ([2]; same concentrations as growth panel): less impact on probiotic Lactobacillus, Bacillus, and Gram Positive aerobes; also recorded: more selective than DoDBA; also recorded: more selective than C3-C7 alkyl boronic acids
motility of Salmonella (Salmonella): highly effective at blocking motility of Salmonella
induction of nF-κB by E. coli (nF-κB): reduced the induction of nF-κB by E. coli
adhesion and invasion of Caco-2 by AIEC (AIEC 541-1 and LF82): suppress adhesion and invasion of Caco-2 by AIEC 541-1 and LF82
colon length in DSS colitis versus control mice [3]: not significantly different
fecal lipocalin levels in DSS colitis versus control mice [3]: not significantly different
intestinal bleeding in DSS colitis [3]: absent
replication and syncytium formation of FIPV [4]: inhibited replication and syncytium formation of FIPV in infected cells
inhibition of growth of Klebsiella pneumonia 13Dk [5]: effective
growth of probiotic Lactobacillus spp [6]: do not suppress growth
